Columns and labels:
HPK1 kinase = HPK1 kinase (Homo sapiens (Human), UniProt Q92918); test: Assay for in vitro inhibitory activity against HPK1 kinase; type: biochemical; conditions: HPK1 1 ng/μL, ATP 1 mM, STK Substrate 1-biotin 500 nM
Protocol: Experimental Example 1: Assay for In Vitro Inhibitory Activity Against HPK1 Kinase A kinase buffer (Enzymatic buffer 5×) was diluted to 1×, and 10 mM MgCl2, 1 mM DTT, and 0.005% Tween 20 were added. A 100 ng/μL HPK1 (Life technology) stock solution was diluted with the kinase buffer to obtain a 1.67×, 1.67 ng/μL working solution (final concentration: 1 ng/μL), and the working solution was seeded in a 384-well plate at 6 μL/well. Different compounds dissolved in DMSO were added to the wells using a nanoliter pipettor to obtain final concentrations of the compounds of 1000 nM to 0.244 nM (4-fold serial dilution, 7 concentrations in total), and blank control wells (without enzyme) and negative control wells (with enzyme, plus vehicle DMSO) were set; the wells were set in duplicate. After the enzyme and the compounds were incubated at room temperature for 1 h, a 5×, 5 mM ATP dilution (final concentration: 1 mM) in the kinase buffer was mixed with a 5×, […] substrate (Cisbio, STK Substrate 1-biotin; final concentration: 500 nM) in equal volume, and the mixture was added to the plate at 4 µL/well. The plate was sealed with a film and then incubated at room temperature for 2 h. An assay antibody solution was prepared by mixing the antibody STK Antibody-cryptate (Cisbio, 5 μL/test) and a 4×, 500 nM Streptavidin-XL665 (Cisbio; final concentration: 125 nM) in equal volume and added to the plate at 10 μL/well. The plate was incubated at room temperature for 1 h. The signal values (excitation: […]) were measured using a PE Envision multimode microplate reader, and IC50 was calculated by four-parameter fitting.

[1] = test system: p-SLP76 phosphorylation of Jurkat cells; test: Assay for inhibitory activity against p-SLP76 phosphorylation of Jurkat cells; type: cell-based; conditions: stimulator CD3CD28, 30 min, read-out: IC50 (nM) for inhibition of p-SLP76 phosphorylation of Jurkat cells
Protocol: 2.1 Assay for Inhibitory Activity Against p-SLP76 Phosphorylation of Jurkat Cells
Jurkat cells in a good growth state were added to a centrifuge tube, centrifuged, and resuspended. The cell density was adjusted to 6.25×10^6 cells/mL, and the cells were seeded in a 384-well small-volume white plate at […]. Different compounds dissolved in DMSO were added to the wells using a nanoliter pipettor to obtain final concentrations of the compounds of 2500 nM to 10.29 nM, and a control was set; the wells were set in duplicate. After 1 h of cell culture, the stimulator CD3CD28 (manufacturer: stemcell, 4 μL) was added and the cells were incubated at 37° C. for 30 min. 3 μL of lysis buffer (manufacturer: BioAuxilium) was added to each well, and the plate was shaken at room temperature for 30 min. After the lysate was well mixed, 5 μL of pre-mixed antibody (manufacturer: BioAuxilium) in assay buffer was added and the plate was incubated overnight at room temperature. The signal values were measured on a PerkinElmer Envision multimode microplate reader (excitation: 320 nm, emission: 615 nm/665 nm), and IC50 was calculated by four-parameter filling.

Chain of HPK1 kinase (Q92918 whole entry): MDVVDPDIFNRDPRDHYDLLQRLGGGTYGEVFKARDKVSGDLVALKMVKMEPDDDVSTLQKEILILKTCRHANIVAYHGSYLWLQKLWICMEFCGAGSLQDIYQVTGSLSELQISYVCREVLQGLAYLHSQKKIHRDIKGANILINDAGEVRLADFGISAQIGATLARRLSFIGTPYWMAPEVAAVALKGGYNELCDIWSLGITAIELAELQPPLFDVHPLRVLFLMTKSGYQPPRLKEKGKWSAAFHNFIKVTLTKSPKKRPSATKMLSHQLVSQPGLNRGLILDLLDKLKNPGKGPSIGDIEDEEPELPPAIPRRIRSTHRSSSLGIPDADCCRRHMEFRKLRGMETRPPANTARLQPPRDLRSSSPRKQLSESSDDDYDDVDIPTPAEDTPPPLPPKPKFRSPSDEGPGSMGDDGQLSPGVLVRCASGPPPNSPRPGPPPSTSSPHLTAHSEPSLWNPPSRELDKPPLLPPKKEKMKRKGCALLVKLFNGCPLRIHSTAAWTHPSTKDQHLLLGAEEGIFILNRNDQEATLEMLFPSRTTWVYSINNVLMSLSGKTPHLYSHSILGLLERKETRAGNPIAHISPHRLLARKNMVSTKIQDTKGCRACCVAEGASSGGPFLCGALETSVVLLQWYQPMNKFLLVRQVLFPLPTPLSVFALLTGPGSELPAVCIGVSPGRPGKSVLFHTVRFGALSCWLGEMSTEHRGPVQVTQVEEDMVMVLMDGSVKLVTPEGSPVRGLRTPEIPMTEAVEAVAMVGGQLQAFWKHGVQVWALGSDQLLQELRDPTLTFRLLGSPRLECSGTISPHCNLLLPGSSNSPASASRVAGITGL

In the case of CN(C)Cc1nc(Nc2ccc(-c3cnc4ccc5occc5n34)c3c2C(=O)NC3)ccc1-c1ccn(C)c(=O)c1 [Compound I-77], the IC50 (HPK1 kinase) was 2.9 nM and the IC50 [1] was < 50 nM.

In the case of CN(C)Cc1nc(Nc2ccc(-c3cnn4c3CC3(CC3)C4)c3c2C(=O)NC3)ccc1C1CCN(C)CC1 [Compound I-78], the IC50 (HPK1 kinase) was 2.3 nM and the IC50 [1] was 50 to 100 nM.

With CN(C)Cc1nc(Nc2ccc(-c3cnn4c3CC3(CC4)CC3)c3c2C(=O)NC3)ccc1[C@@H]1CCN(C)C(=O)C1 [I-71] the IC50 (HPK1 kinase) was 3.6 nM and the IC50 [1] was < 50 nM.

Source: patent US20250236619A1, “FUSED BICYCLIC COMPOUND CONTAINING PYRROLINONE” (CHIA TAI TIANQING PHARMACEUTICAL GROUP CO., LTD., priority 2022, published 2025)
